Test results from patent US20150105252A1, “SUBSTITUTED PYRAZOLES AS HERBICIDES” (E I DU PONT DE NEMOURS AND COMPANY, priority 2013, published 2015).

Tests used:
[1] = test system: corn; assay: Test C postemergence; assay type: in vivo, Zea mays; details: for Plant response rating (scale of 0 to 100 where 0 is no effect and 100 is complete control), Corn: Postemergence, 31 g ai/ha, visually evaluated after 13 to 15 days; for Corn plant response rating / Plant response rating, Corn: postemergence; for Corn plant response rating: 62 g ai/ha, scale 0 to 100
Outline: (§1)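 Seeds were sown in a loam soil–sand blend and sprayed preemergence with compounds formulated in a non-phytotoxic solvent mixture containing surfactant. Postemergence plants, grown in peat/vermiculite medium to 2–18 cm (1- to 4-leaf stage), received the same formulation. After 13 to 15 days in a greenhouse, injury was rated visually against controls (0 = no effect, 100 = complete control).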

[2] = test system: waterhemp; assay: Test C postemergence; assay type: in vivo, Amaranthus rudis; details: for Plant response rating (scale of 0 to 100 where 0 is no effect and 100 is complete control), Waterhemp: Postemergence, 31 g ai/ha, visually evaluated after 13 to 15 days; for Waterhemp plant response rating / Plant response rating, Waterhemp: postemergence; for Waterhemp plant response rating: 62 g ai/ha, scale 0 to 100
Outline: as §1

[3] = test system: galium; assay: Test C postemergence; assay type: in vivo, Galium aparine; details: for Plant response rating (scale of 0 to 100 where 0 is no effect and 100 is complete control), Galium: Postemergence, 31 g ai/ha, visually evaluated after 13 to 15 days; for Galium plant response rating / Plant response rating, Galium: postemergence; for Galium plant response rating: 62 g ai/ha, scale 0 to 100
Outline: as §1

[4] = test system: sedge, umbrella; assay: Test B flood; assay type: in vivo, Cyperus difformis; details: 250 g ai/ha, visual rating on 0 to 100 scale (0 no effect, 100 complete control), 13 to 15 days
Outline: (§2)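 Plants were grown to the 2-leaf stage, then pots were flooded to 3 cm above the soil and compounds were applied directly into the paddy water. Water depth was held for the whole test; after 13 to 15 days in a greenhouse, injury was visually rated against untreated controls (0 = no effect, 100 = complete control).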

[5] = test system: ryegrass, Italian; assay: Test C preemergence; assay type: in vivo, Lolium multiflorum; details: for Plant response rating (scale of 0 to 100), Ryegrass, Italian: Preemergence, 250 g ai/ha; for Ryegrass, Italian plant response rating: preemergence
Outline: as §1

[6] = test system: morningglory; assay: Test C postemergence; assay type: in vivo, Ipomoea coccinea; details: for Plant response rating (scale of 0 to 100 where 0 is no effect and 100 is complete control), Morningglory: Postemergence, 31 g ai/ha, visually evaluated after 13 to 15 days; for Morningglory plant response rating / Plant response rating, Morningglory: postemergence; for Morningglory plant response rating: 62 g ai/ha, scale 0 to 100
Outline: as §1

[7] = test system: ragweed; assay: Test C postemergence; assay type: in vivo, Ambrosia elation; details: for Plant response rating (scale of 0 to 100 where 0 is no effect and 100 is complete control), Ragweed: Postemergence, 31 g ai/ha, visually evaluated after 13 to 15 days; for Ragweed plant response rating / Plant response rating, Ragweed: postemergence; for Ragweed plant response rating: 62 g ai/ha, scale 0 to 100
Outline: as §1

[8] = test system: foxtail, giant; assay: Test A postemergence; assay type: in vivo, Setaria faberii
Outline: (§3)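 After sowing in a sand–loam mix, pots received compound preemergence by directed soil spray, or postemergence once plants reached the one- to two-leaf stage (2–10 cm). Formulation contained surfactant in a non-phytotoxic solvent. Injury was scored visually after ~10 greenhouse days, 0–100 scale.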

[9] = test system: morningglory; assay: Test A preemergence; assay type: in vivo, Ipomoea spp.; details: preemergence
Outline: as §3

[10] = test system: barnyardgrass; assay: Test B flood; assay type: in vivo, Echinochloa crus-galli; details: 250 g ai/ha, visual rating on 0 to 100 scale (0 no effect, 100 complete control), 13 to 15 days
Outline: as §2

[11] = test system: corn; assay: Test A preemergence; assay type: in vivo, Zea mays; details: preemergence
Outline: as §3

[12] = test system: pigweed; assay: Test C postemergence; assay type: in vivo, Amaranthus retroflexus; details: for Plant response rating (scale of 0 to 100 where 0 is no effect and 100 is complete control), Pigweed: Postemergence, 31 g ai/ha, visually evaluated after 13 to 15 days; for Pigweed plant response rating / Plant response rating, Pigweed: postemergence; for Pigweed plant response rating: 62 g ai/ha, scale 0 to 100
Outline: as §1

[13] = test system: velvetleaf; assay: Test A preemergence; assay type: in vivo, Abutilon theophrasti; details: preemergence
Outline: as §3

[14] = test system: crabgrass, large; assay: Test A preemergence; assay type: in vivo, Digitaria sanguinalis; details: preemergence
Outline: as §3

[15] = test system: ducksalad; assay: Test B flood; assay type: in vivo, Heteranthera limosa; details: 250 g ai/ha, visual rating on 0 to 100 scale (0 no effect, 100 complete control), 13 to 15 days
Outline: as §2

[16] = 250 g ai/ha, scale 0 to 100 (0 no effect, 100 complete control)
[17] = 125 g ai/ha, scale 0 to 100, 0 no effect, 100 complete control
[18] = 31 g ai/ha, visual rating, scale 0 to 100 (0 no effect, 100 complete control), 13 to 15 days
[19] = 62 g ai/ha, scale 0 to 100 (0 no effect, 100 complete control), 13 to 15 days
[20] = 125 g ai/ha, scale 0 to 100, 0 is no effect, 100 is complete control
[21] = Postemergence, 500 g ai/ha, visual rating after approx. 10 days, 0 to 100 scale (0 no effect, 100 complete control)
[22] = postemergence, 125 g ai/ha, about 10 days, visual rating on 0 to 100 scale (0 no effect, 100 complete control)
[23] = 125 g ai/ha, visual injury, 0 to 100 scale, approx. 10 days
[24] = 500 g ai/ha, visual injury after approx. 10 days, 0 to 100 scale (0 no effect, 100 complete control)

Compound: CCc1cc(C(=O)NCC(F)(F)F)nn1Cc1nc(C(F)(F)F)nn1C [Compound 107]
- Plant response rating (scale of 0 to 100 where 0 is no effect and 100 is complete control), Corn [1]: 5
- Corn plant response rating [1]: 5
- Plant response rating, Corn [1, 16]: 40
- Plant response rating, Corn [1, 17]: 5
- Plant response rating (scale of 0 to 100 where 0 is no effect and 100 is complete control), Waterhemp [2]: 5
- Waterhemp plant response rating [2]: 40
- Plant response rating, Waterhemp [2, 16]: 80
- Plant response rating, Waterhemp [2, 17]: 40
- Plant response rating (scale of 0 to 100 where 0 is no effect and 100 is complete control), Galium [3]: 50
- Galium plant response rating [3]: 85
- Plant response rating, Galium [3, 16]: 90
- Plant response rating, Galium [3, 17]: 90
- Plant response rating, Sedge, Umbrella [4]: 80
- Plant response rating (scale of 0 to 100), Ryegrass, Italian [5]: 100
- Ryegrass, Italian plant response rating [5, 18]: 10
- Ryegrass, Italian plant response rating [5, 19]: 60
- Ryegrass, Italian plant response rating [5, 20]: 60
- Plant response rating (scale of 0 to 100 where 0 is no effect and 100 is complete control), Morningglory [6]: 75
- Morningglory plant response rating [6]: 80
- Plant response rating, Morningglory [6, 16]: 80
- Plant response rating, Morningglory [6, 17]: 80
- Plant response rating (scale of 0 to 100 where 0 is no effect and 100 is complete control), Ragweed [7]: 10
- Ragweed plant response rating [7]: 65
- Plant response rating, Ragweed [7, 16]: 90
- Plant response rating, Ragweed [7, 17]: 85
- Foxtail, Giant plant response rating [8, 21]: 90
- Foxtail, Giant plant response rating [8, 22]: 70
- Morningglory plant response rating [9, 23]: 90
- Morningglory plant response rating [9, 24]: 100
- Plant response rating, Barnyardgrass [10]: 40
- Corn plant response rating [11, 23]: 30
- Corn plant response rating [11, 24]: 80
- Plant response rating (scale of 0 to 100 where 0 is no effect and 100 is complete control), Pigweed [12]: 50
- Pigweed plant response rating [12]: 85
- Plant response rating, Pigweed [12, 16]: 85
- Plant response rating, Pigweed [12, 17]: 85
- Velvetleaf plant response rating [13, 23]: 90
- Velvetleaf plant response rating [13, 24]: 100
- Crabgrass, Large plant response rating [14, 23]: 100
- Crabgrass, Large plant response rating [14, 24]: 100
- Plant response rating, Ducksalad [15]: 70

Compound: CCc1cc(C(=O)NCC(F)(F)F)nn1Cc1cc(C(F)(F)F)nn1C [Compound 108, 5-ethyl-1-[[1-methyl-3-(trifluoromethyl)-1H-pyrazole-5-yl]methyl]-N-(2,2,2-trifluoroethyl)-1H-pyrazole-3-carboxamide]
- Plant response rating (scale of 0 to 100 where 0 is no effect and 100 is complete control), Corn [1]: 5
- Corn plant response rating [1]: 5
- Plant response rating, Corn [1, 16]: 35
- Plant response rating, Corn [1, 17]: 15
- Plant response rating (scale of 0 to 100 where 0 is no effect and 100 is complete control), Waterhemp [2]: 5
- Waterhemp plant response rating [2]: 50
- Plant response rating, Waterhemp [2, 16]: 80
- Plant response rating, Waterhemp [2, 17]: 50
- Plant response rating (scale of 0 to 100 where 0 is no effect and 100 is complete control), Galium [3]: 60
- Galium plant response rating [3]: 60
- Plant response rating, Galium [3, 16]: 90
- Plant response rating, Galium [3, 17]: 80
- Plant response rating, Sedge, Umbrella [4]: 70
- Plant response rating (scale of 0 to 100), Ryegrass, Italian [5]: 100
- Ryegrass, Italian plant response rating [5, 18]: 30
- Ryegrass, Italian plant response rating [5, 19]: 60
- Ryegrass, Italian plant response rating [5, 20]: 90
- Plant response rating (scale of 0 to 100 where 0 is no effect and 100 is complete control), Morningglory [6]: 50
- Morningglory plant response rating [6]: 50
- Plant response rating, Morningglory [6, 16]: 90
- Plant response rating, Morningglory [6, 17]: 80
- Plant response rating (scale of 0 to 100 where 0 is no effect and 100 is complete control), Ragweed [7]: 10
- Ragweed plant response rating [7]: 50
- Plant response rating, Ragweed [7, 16]: 85
- Plant response rating, Ragweed [7, 17]: 50
- Foxtail, Giant plant response rating [8, 21]: 100
- Foxtail, Giant plant response rating [8, 22]: 90
- Morningglory plant response rating [9, 23]: 100
- Morningglory plant response rating [9, 24]: 100
- Plant response rating, Barnyardgrass [10]: 40
- Corn plant response rating [11, 23]: 30
- Corn plant response rating [11, 24]: 90
- Plant response rating (scale of 0 to 100 where 0 is no effect and 100 is complete control), Pigweed [12]: 40
- Pigweed plant response rating [12]: 45
- Plant response rating, Pigweed [12, 16]: 90
- Plant response rating, Pigweed [12, 17]: 50
- Velvetleaf plant response rating [13, 23]: 60
- Velvetleaf plant response rating [13, 24]: 100
- Crabgrass, Large plant response rating [14, 23]: 100
- Crabgrass, Large plant response rating [14, 24]: 100
- Plant response rating, Ducksalad [15]: 60
